{"source": "paper PMC12637021", "about": "“Talin–tensin3 interactions regulate fibrillar adhesion formation and tensin3 phase separation” (The Journal of Cell Biology, 2025)", "test_system": "tensin3 IDR (mCh-IDR)", "experiment": "mitochondrial pulldown, talin constructs with mCh-IDR", "format": "binding, Homo sapiens", "settings": "TLN1-E1770A-cBAK vs TLN1-WT-cBAK; HEK293T; three replicates", "method": "Mitochondrial isolation from HEK293T cells was performed after 24 h of transient expression using a combined method of Qproteome Mitochondria Isolation Kit (QIAGEN) and MACS Mitochondria Isolation Kit (Miltenyi). Cells were collected in ice-cold PBS and aliquoted for the preparation of the whole-cell lysate (wcl) fraction (30%) and the mitochondrial fraction (70%). Cell lysis and homogenization of the mitochondrial fraction were performed according to the manufacturer’s instructions (QIAGEN). Magnetic anti-TOM22 microbeads (Miltenyi) were used to label mitochondria in the homogenized mitochondrial fraction for 1 h at 4°C. The labeled mitochondria were separated from a magnetic column before elution with ice-cold separation buffer (Miltenyi). The eluted mitochondria were washed and centrifuged according to the Miltenyi’s instructions. RIPA buffer (ChromoTek) was used for protein extraction from the wcl and purified mitochondria. Samples were stored at −80°C prior to western blotting.\nSamples were mixed with sample buffer (4X, Invitrogen) supplemented with reducing agent (10X, Invitrogen). […] Signals were detected using goat anti-mouse IgG conjugated to IRDye 680RD (1:15,000, ab216776; Abcam) and goat anti-rabbit IgG conjugated to IRDye 800CW (1:15000, ab216773; Abcam) secondary antibodies. […] Western blot analysis and quantification were performed using ImageJ software."}
{"substance": "TLN1-E1770A-cBAK: constitutively active talin1 construct", "values": [{"measurement": "increase in IDR pulldown vs WT talin", "result": 50, "unit": "%"}]}
